From ChEMBL document CHEMBL1201862, “PubChem BioAssay data set” (2004)
One block for each molecule: values may come before it. Active and inactive are the calls of the source.

What was measured:
[1] = target: Tyrosyl-DNA phosphodiesterase 2 (Homo sapiens, UniProt O95551); assay: human TDP2 enzyme inhibitors, dose response, biochemical, epi absorbance, IC50 (AID 743297)
[2] = target: T1, Mannose-6-phosphate isomerase (Homo sapiens, UniProt P34949); assay: human PMI inhibitors, high substrate, primary screen, biochemical, fluorescence intensity, high mannose 6-phosphate (AID 1220)
T1 sequence (P34949 whole entry): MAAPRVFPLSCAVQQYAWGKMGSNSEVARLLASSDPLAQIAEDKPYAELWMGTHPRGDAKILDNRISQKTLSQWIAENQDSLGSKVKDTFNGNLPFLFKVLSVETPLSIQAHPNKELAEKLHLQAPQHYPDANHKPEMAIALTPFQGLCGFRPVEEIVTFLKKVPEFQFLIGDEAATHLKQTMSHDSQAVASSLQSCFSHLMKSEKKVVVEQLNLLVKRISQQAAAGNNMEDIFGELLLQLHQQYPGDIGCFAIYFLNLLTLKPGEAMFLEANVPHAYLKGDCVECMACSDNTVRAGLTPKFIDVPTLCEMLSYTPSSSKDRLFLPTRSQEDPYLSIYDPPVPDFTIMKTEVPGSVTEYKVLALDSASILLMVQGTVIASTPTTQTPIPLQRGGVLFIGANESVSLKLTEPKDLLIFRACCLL

[3] = MITF: Counter assay: A375 proliferation Measured in Cell-Based System Using Plate Reader - 2084-03_Inhibitor_Dose_DryPowder_Activity_Set8.; type: functional; conditions: A-375
[4] = MITF Orthogonal Assay: SK-MEL-5 CTG Assay Measured in Cell-Based System Using Plate Reader - 2084-02_Inhibitor_Dose_DryPowder_Activity_Set7.; type: functional
[5] = NIH:OVCAR-3 ovarian cancer cell cytotoxicity, dose response, PAX8 inhibitor project, plate reader, dry powder samples (AID 743044); type: functional, cell-based
[6] = IGROV1 ovarian cancer cell cytotoxicity, dose response, PAX8 inhibitor project, plate reader, dry powder samples (AID 743043); type: functional, cell-based; conditions: IGROV-1
[7] = cytotoxicity in OVCAR8 ovarian cancer cells, dose response, PAX8 project, cell-based, plate reader, dry powder samples (AID 743197); type: functional; conditions: OVCAR-8
Paired box protein Pax-8 = Paired box protein Pax-8 (Homo sapiens, UniProt Q06710); assay: inhibitors of PAX8-driven TPO luciferase reporter, dose response, RMG-I cells, cherry-pick (AID 687027); type: functional, cell-based;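 note: luciferase reporter driven by Pax8 target thyroperoxidase promoter measured by SteadyGlo luminescence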
Paired box protein Pax-8, sequence (Q06710 whole entry): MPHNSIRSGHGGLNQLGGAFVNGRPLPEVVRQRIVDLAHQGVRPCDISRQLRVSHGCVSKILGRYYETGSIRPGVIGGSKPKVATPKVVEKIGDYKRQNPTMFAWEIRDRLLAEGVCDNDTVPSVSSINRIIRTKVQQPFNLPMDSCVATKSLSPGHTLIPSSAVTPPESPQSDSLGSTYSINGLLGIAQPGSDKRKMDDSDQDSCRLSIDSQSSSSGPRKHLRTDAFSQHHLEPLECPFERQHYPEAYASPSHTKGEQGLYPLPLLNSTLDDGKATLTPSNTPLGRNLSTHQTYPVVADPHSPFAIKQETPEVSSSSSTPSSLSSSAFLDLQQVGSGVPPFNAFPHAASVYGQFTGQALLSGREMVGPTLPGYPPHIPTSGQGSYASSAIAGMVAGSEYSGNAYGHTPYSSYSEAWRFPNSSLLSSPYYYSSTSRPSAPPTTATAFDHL

[8] = human group III sPLA2 inhibitors, dose response, biochemical, QFRET, IC50 (AID 743457);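 note: green fluorescence rise as the enzyme cleaves BODIPY PC-A2 in liposomes; potency for inhibition of the enzyme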
[9] = target: T2, Ubiquitin-conjugating enzyme E2 N (Homo sapiens, UniProt P61088); type: functional;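 note: Dose-response confirmation in a TR-FRET assay detecting UBC13-driven polyubiquitin chain formation, inhibition measured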
T2 sequence (P61088 whole entry): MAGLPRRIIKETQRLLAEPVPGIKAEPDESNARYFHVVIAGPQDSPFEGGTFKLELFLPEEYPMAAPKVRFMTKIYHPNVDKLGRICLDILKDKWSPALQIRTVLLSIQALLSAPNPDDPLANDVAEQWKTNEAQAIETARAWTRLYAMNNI

[10] = non-specific cell cytotoxicity, dose response, cytotoxicity control for PAX8 inhibitor project, plate reader, dry powder samples (AID 743021); type: functional, cell-based

Tyrosyl-DNA phosphodiesterase 2, sequence (O95551 whole entry): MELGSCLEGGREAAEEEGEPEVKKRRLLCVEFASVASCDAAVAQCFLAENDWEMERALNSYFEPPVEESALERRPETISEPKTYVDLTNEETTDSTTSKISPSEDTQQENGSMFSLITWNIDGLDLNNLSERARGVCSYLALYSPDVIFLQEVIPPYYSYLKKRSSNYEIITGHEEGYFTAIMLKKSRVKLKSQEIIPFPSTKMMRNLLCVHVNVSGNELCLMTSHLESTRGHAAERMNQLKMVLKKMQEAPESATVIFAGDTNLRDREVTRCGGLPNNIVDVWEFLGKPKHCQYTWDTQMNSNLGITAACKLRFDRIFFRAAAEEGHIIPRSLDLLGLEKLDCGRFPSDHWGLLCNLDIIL

IC50 [1]: > 128 µM (inactive)
IC50 [2]: > 50 µM (not active)
Structure (SMILES): Nn1cnnc1N/N=C\c1ccc(-c2ccccc2[N+](=O)[O-])o1

Structure (SMILES): COc1ccc(NC2=CC(=O)c3ccccc3C2=O)cc1
AC50 [3]: > 70 µM (inactive)
AC50 [4]: 0.838 µM (active)

Structure (SMILES): C[C@@H]1CN([C@H](C)CO)C(=O)c2cc(NC(=O)CCC(F)(F)F)ccc2O[C@@H](C)CCCCO[C@@H]1CN(C)Cc1ccc(Cl)c(Cl)c1
AC50 [5]: 33.3 µM (active)
AC50 [6]: 45.7 µM (active)
AC50 [7]: 61 µM (active)
AC50 (Paired box protein Pax-8): 7.47 µM (active)

IC50 [8]: > 122 µM (inactive)
Structure (SMILES): CCN(CC)c1ccc(-c2nnc(S)n2-c2ccccc2)cc1

Structure (SMILES): CCC[C@@H](CN[C@@H](CNC)[C@H](C)CC)NCC1CCC(C(C)(C)C)CC1 (some centres not stated)
IC50 [9]: > 20 µM (inactive)
AC50 [10]: 37.7 µM (active)
AC50 (Paired box protein Pax-8): 14.4 µM (active)
